According to patent US9650360B2, “Anti-mycobacterial drugs against tuberculosis” (priority 2012, dated 2017):

Tested on: HIV
Assay: in vitro anti-HIV activity in cell culture
Format: cell-based

## O=C(/C=C(\O)c1cc(Cc2c(F)cc(F)cc2F)cn(Cc2ccccc2F)c1=O)C(=O)N1CCN(c2cccc3ccccc23)CC1
  EC90 (concentration for 90% inhibition of virus replication): nM range
